Measured values as given in ChEMBL document CHEMBL3988442, “University of Dundee, Small-Polar-MMV Screening Library” (2021).

Tested on: not listed separately
Assay: microbe, parasite or virus in culture
Details: Mycobacterium tuberculosis, 96 h, read-out: pIC50 (converted)

Row | Structure (SMILES) | IC50 [µM]
1 | COC(=O)CNC(=O)c1cn(-c2ccccn2)c(=O)c2ccccc12 | > 50.1
2 | CC(C)n1ccc(-c2cc(C(=O)NC3CC3)c3ccccn23)n1 | 14
3 | COc1cccc(C(C)Nc2ncnc3c2NC(=O)CN3)c1 (stereo unspecified) | > 50.1
4 | O[C@@H]1CN(c2cnc3ccccc3n2)CC[C@H]1c1ccc2c(c1)OCO2 | 2.21
5 | OCC1(CC2CCCCO2)CCN(c2cnc3ccccc3n2)CC1 (stereo unspecified) | 10.7

Biological target: ClpP1P2 (Mycobacterium tuberculosis (strain ATCC 25618 / H37Rv), UniProt P9WPC3+P9WPC5)
Assay: in vitro assay to detect presence of AMC directly proportional to the activity of ClpP1P2. GHDDI collaboration.
Format: functional
Details: not given

Sequence of ClpP1P2 (P9WPC5 whole entry): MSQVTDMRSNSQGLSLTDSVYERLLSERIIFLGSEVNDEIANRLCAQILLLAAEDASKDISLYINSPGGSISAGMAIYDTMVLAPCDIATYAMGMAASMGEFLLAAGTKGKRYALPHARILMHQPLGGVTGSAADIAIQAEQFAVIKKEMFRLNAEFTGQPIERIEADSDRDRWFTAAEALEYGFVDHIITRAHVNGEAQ
Sequence of ClpP1P2 (P9WPC3 whole entry): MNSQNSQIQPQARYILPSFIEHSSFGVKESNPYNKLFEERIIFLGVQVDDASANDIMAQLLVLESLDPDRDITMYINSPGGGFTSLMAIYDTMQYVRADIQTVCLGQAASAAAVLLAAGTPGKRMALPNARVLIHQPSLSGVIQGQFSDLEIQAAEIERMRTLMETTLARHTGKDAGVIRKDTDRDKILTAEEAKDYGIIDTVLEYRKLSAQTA

Row | Structure (SMILES) | IC50 [µM]
6 | Cc1n[nH]c(=O)c2c(NC(=O)CN3CCOC(C)C3)oc(C)c12 (stereo unspecified) | > 100
7 | COC(=O)CNC(=O)c1cn(-c2ccccn2)c(=O)c2ccccc12 | > 100
8 | CC(C)n1ccc(-c2cc(C(=O)NC3CC3)c3ccccn23)n1 | > 100
9 | COc1cccc(C(C)Nc2ncnc3c2NC(=O)CN3)c1 (stereo unspecified) | > 100
10 | O[C@@H]1CN(c2cnc3ccccc3n2)CC[C@H]1c1ccc2c(c1)OCO2 | > 100
11 | OCC1(CC2CCCCO2)CCN(c2cnc3ccccc3n2)CC1 (stereo unspecified) | > 100
12 | CCCOc1ccc(CNc2cncc(-n3cccn3)n2)cc1 | > 100
13 | CCOCc1ccc(CNc2cncc(-n3cccn3)n2)cc1 | > 100
14 | CCN(CC)C(=O)c1ccc(CNc2cncc(-n3cccn3)n2)cc1 | > 100
15 | CS(=O)(=O)NC1CCN(C(=O)NCc2ccccn2)CC1 | > 100
16 | Cn1c(CN2CCCC(Cn3cncn3)C2)nc2ccccc21 (stereo unspecified) | > 100
17 | CC1CN(CC(=O)NCc2ccccn2)CCN1Cc1nccn1C (stereo unspecified) | > 100
18 | c1ccc(Cc2nnc(CN3CCc4cncnc4C3)o2)cc1 | > 100
19 | Cc1ncc2c(n1)CN(Cc1nc(Cc3ccccc3)no1)CC2 | > 100
20 | CC(C)c1ncc2c(n1)CN(Cc1nnc(Cc3ccccc3)o1)CC2 | > 100
21 | CCc1ncc2c(n1)CN(Cc1nnc(Cc3ccccc3)o1)CC2 | > 100
22 | c1cc(-c2nc(CN3CCc4c(ncn4C4CC4)C3)cs2)cs1 | > 100
23 | O=C1CCc2cc(NC(=O)C3CCCN3c3nccs3)ccc2N1 (stereo unspecified) | > 100
24 | CN(C)c1cc(C(=O)N2CCN(c3cc(C#N)ccn3)CC2)ccn1 | > 100
25 | CN(Cc1noc(C2CC2)n1)C1CCN(Cc2ccccc2C#N)C1 (stereo unspecified) | > 100
26 | O=C(NCc1nn(-c2ccccc2)c2c1CCC2)NCC1COCCO1 (stereo unspecified) | > 100
27 | CC(Cc1ccco1)NC(=O)Nc1ccc(N(C)C)nc1 (stereo unspecified) | > 100

Row | Structure (SMILES) | IC50 [µM]
28 | CC(Cc1ccco1)NC(=O)Nc1ccc(N2CCCC2)nc1 (stereo unspecified) | > 100
29 | Cc1cccc(CN(C(=O)NCc2ccccn2)C2CC2)c1 | > 100
30 | CCc1nnc2n1CCN(C(=O)c1ccc(-c3ccco3)[nH]c1=O)C2 | > 100
31 | Cc1ncc2c(n1)CN(CC(=O)Nc1ccc(Cl)cn1)CC2 | > 100
32 | Cc1cccc2nc(CN3CCCC3Cn3cccn3)cn12 (stereo unspecified) | > 100
33 | CCc1ncc2c(n1)CN(CC(=O)Nc1cccnc1)CC2 | > 100
34 | CCc1ncc2c(n1)CN(CC(=O)Nc1nncs1)CC2 | > 100
35 | CCc1ncc2c(n1)CN(C(C)C(=O)Nc1ccc(Cl)cn1)CC2 (stereo unspecified) | > 100
36 | CC(C)c1ncc2c(n1)CN(CC(=O)Nc1ccc(Cl)cn1)CC2 | > 100
37 | Cc1nc(CN(C)C2CCN(Cc3nc4ccccc4n3C)C2)no1 (stereo unspecified) | > 100
38 | CC(Cn1cccn1)NC(=O)Cc1csc(C(C)C)n1 (stereo unspecified) | > 100
39 | Cc1nn(C)c(C)c1C1CCCN1C(=O)c1nccnc1N (stereo unspecified) | > 100
40 | CS(=O)(=O)CCNC(=O)c1ccc(-c2ccco2)[nH]c1=O | > 100
41 | O=C(NCCOC1CCCC1)c1ccc(-c2ccco2)[nH]c1=O | > 100
42 | O=C(NCCOC1CCCCC1)c1ccc(-c2ccco2)[nH]c1=O | > 100
43 | CC(C)(C)OC(=O)NCCNC(=O)c1ccc(-c2ccco2)[nH]c1=O | > 100
44 | O=C(NCC(F)(F)F)c1ccc(-c2ccco2)[nH]c1=O | > 100
45 | COc1ccc(CNC(=O)Nc2cccnc2N2CCCC2)cc1OC | > 100
46 | Cc1cnn(CC2CN(Cc3nc4ccccc4c(=O)[nH]3)CCO2)c1 (stereo unspecified) | > 100
47 | Cc1cc(C)n(CC2CCCN2C(=O)c2ccnc(N(C)C)c2)n1 (stereo unspecified) | > 100
48 | c1ccc(CCCN2CCOC(Cn3cccn3)C2)cc1 (stereo unspecified) | > 100
49 | COCCN1CC(C(=O)NCc2cccnc2-n2cccn2)CC1=O (stereo unspecified) | > 100

Row | Structure (SMILES) | IC50 [µM]
50 | O=C(NCCCn1cccn1)NCC(c1ccco1)N1CCCC1 (stereo unspecified) | > 100
51 | CCC(CNC(=O)Nc1cnn(CC)c1)N1CCc2ccccc2C1 (stereo unspecified) | > 100
52 | O=C(c1cc(F)ccc1F)C1CCN(C(=O)c2cnccn2)CC1 | > 100
53 | CCOC1CCN(C(=O)NCCc2ccn(-c3ccccc3)n2)CC1 | > 100
54 | CC(=O)N(Cc1ncc(C)o1)C1CCN(Cc2cc(C)on2)C1 (stereo unspecified) | > 100
55 | Cc1ccc(CN(CC(=O)N2CCOC(C)C2)C2CC2)cc1 (stereo unspecified) | > 100
56 | Cc1cnn(CC2CCCN2C(=O)CCc2ccncc2)c1 (stereo unspecified) | > 100
57 | CCCc1nc(CNCC2CCCN2c2cccnn2)no1 (stereo unspecified) | > 100
58 | CCn1c(C)nnc1CN(C)C1CCN(CCS(=O)(=O)CC)C1 (stereo unspecified) | > 100
59 | CC1CN(C(=O)CN(Cc2ccco2)Cc2cccs2)CCO1 (stereo unspecified) | > 100
60 | CC1CN(C(=O)CN(Cc2ccccc2)C2CC2)CCO1 (stereo unspecified) | > 100
61 | CCc1nc(C2CCCN(C(=O)CC3CCOCC3)C2)no1 (stereo unspecified) | > 100
62 | Cc1nc(C)n(CC2CCCN2CCC(=O)N2CCCCC2)n1 (stereo unspecified) | > 100
63 | Cc1nc(C)n(CC2CCCN(CC(=O)N3CCCC3)C2)n1 (stereo unspecified) | > 100
64 | CS(=O)(=O)NC1CCCN(C(=O)c2cccnc2)C1 (stereo unspecified) | > 100
65 | COc1ccnc(N2CCN(C(=O)Cc3ccsc3)CC2)n1 | > 100
66 | Cc1nnc(C2Cc3ccccc3CN2Cc2c(C)noc2C)o1 (stereo unspecified) | > 100
67 | CCn1cnnc1CNC(=O)N1CCN(Cc2ccco2)CC1 | > 100
68 | Cc1nc(C)n(CC2CCCN(CCC(=O)NC3CCCCC3)C2)n1 (stereo unspecified) | > 100
69 | CC(C)c1nn(C)c(N(C)C)c1CNCC(O)c1cccc(F)c1 (stereo unspecified) | > 100
70 | COCc1cccc(CNCc2c(C)nn(C)c2N2CCOCC2)c1 | > 100
71 | CC(C)c1nnc(CNC2CCCN(Cc3noc(C4CC4)n3)C2)o1 (stereo unspecified) | > 100

Row | Structure (SMILES) | IC50 [µM]
72 | O=C(NCCC(=O)N1CCCc2ccccc21)c1ccc(F)cc1F | > 100
73 | O=C(NCCC(=O)N1CCCc2ccccc21)c1c(F)cccc1F | > 100
74 | Cc1nc(CN(C)C2CCN(Cc3cccc4c3OCCO4)C2)no1 (stereo unspecified) | > 100
75 | COc1cc2ccccc2cc1C(=O)N1CCCC(c2nncn2C)C1 (stereo unspecified) | > 100
76 | CCc1nc(CN2CCCC(NCc3nc(C)c(C)o3)C2)no1 (stereo unspecified) | > 100
77 | Cc1oc(C)c(C(=O)N2CCN(Cc3cscn3)CC2)c1C | > 100
78 | Cc1nn(C)c(C)c1C1CCCN1C(=O)c1ccnc(N(C)C)c1 (stereo unspecified) | > 100
79 | CCc1nnc(CNC2CCCN(Cc3noc(C4CC4)n3)C2)o1 (stereo unspecified) | > 100
80 | Cc1nc(CN(C)C2CCN(Cc3ccc4c(c3)CCC4)C2)no1 (stereo unspecified) | > 100
81 | CCNc1cc2c(nn1)CCN(C(=O)c1ccoc1)C2 | > 100
82 | CC(C)c1nnc2n1CCN(Cc1csc(CC(=O)N(C)C)n1)C2 | > 100
83 | Cc1cccc2c1OCCC2NCc1c(C)nn(C)c1N(C)C (stereo unspecified) | > 100
84 | CCCn1[nH]cc/c1=N\C(=O)CN1CCn2c(nnc2C2CC2)C1 | > 100
85 | CS(=O)(=O)N1CCCCCC1C1CCN(c2ncccc2C#N)CC1 (stereo unspecified) | > 100
86 | Cc1cc(NC(=O)CN2CCn3c(nnc3C(C)C)C2)no1 | > 100
87 | Cn1cc(-c2nc(CNCCn3cccn3)cs2)cn1 | > 100
88 | Cc1n[nH]c(=O)c2c(NC(=O)CN3CCCC(C(F)(F)F)C3)oc(C)c12 (stereo unspecified) | > 100
89 | COC(=O)COc1cccc(NS(=O)(=O)c2cc(C(=O)O)cs2)c1 | > 100
90 | COc1ccc(S(N)(=O)=O)cc1C(=O)N(C)Cc1cc(C)on1 | > 100
91 | Cc1n[nH]c(=O)c2c(NC(=O)CN3CCC(O)CC3)oc(C)c12 | > 100

Tested on: not listed separately
Assay: microbe, parasite or virus in culture
Details: Mycobacterium tuberculosis, 72 h, read-out: pIC50 (converted)

Row | Structure (SMILES) | IC50 [µM]
92 | COC(=O)CNC(=O)c1cn(-c2ccccn2)c(=O)c2ccccc12 | > 50.1
93 | CC(C)n1ccc(-c2cc(C(=O)NC3CC3)c3ccccn23)n1 | 16.5
94 | COc1cccc(C(C)Nc2ncnc3c2NC(=O)CN3)c1 (stereo unspecified) | > 50.1
95 | O[C@@H]1CN(c2cnc3ccccc3n2)CC[C@H]1c1ccc2c(c1)OCO2 | 3.18
96 | OCC1(CC2CCCCO2)CCN(c2cnc3ccccc3n2)CC1 (stereo unspecified) | 13.4
